ChEMBL document CHEMBL1201861, “Genomics of Drug Sensitity in Cancer screening data, Wellcome Trust Sanger Institute”

Tests used:
Experiment in all cases: cells
Conditions in all cases: Homo sapiens
COR-L88 = format: functional, cell-based
Description: SANGER: Inhibition of human COR-L88 cell growth in a cell viability assay.

D-263MG = format: functional, cell-based
Description: SANGER: Inhibition of human D-263MG cell growth in a cell viability assay.

D283 Med = format: functional, cell-based
Description: SANGER: Inhibition of human D-283MED cell growth in a cell viability assay.

DSH1 = format: functional, cell-based
Description: SANGER: Inhibition of human DSH1 cell growth in a cell viability assay.

EC-GI-10 = format: functional, cell-based
Description: SANGER: Inhibition of human EC-GI-10 cell growth in a cell viability assay.

EM-2 = format: functional, cell-based
Description: SANGER: Inhibition of human EM-2 cell growth in a cell viability assay.

ES3 = format: functional, cell-based
Description: SANGER: Inhibition of human ES3 cell growth in a cell viability assay.

ES8 = format: functional, cell-based
Description: SANGER: Inhibition of human ES8 cell growth in a cell viability assay.

EW-11 = format: functional, cell-based
Description: SANGER: Inhibition of human EW-11 cell growth in a cell viability assay.

EW-24 = format: functional, cell-based
Description: SANGER: Inhibition of human EW-24 cell growth in a cell viability assay.

GCIY = format: functional, cell-based
Description: SANGER: Inhibition of human GCIY cell growth in a cell viability assay.

GOTO = format: functional, cell-based
Description: SANGER: Inhibition of human GOTO cell growth in a cell viability assay.

GR-ST = format: functional, cell-based
Description: SANGER: Inhibition of human GR-ST cell growth in a cell viability assay.

GT3TKB = format: functional, cell-based
Description: SANGER: Inhibition of human GT3TKB cell growth in a cell viability assay.

HCE-4 = format: functional, cell-based
Description: SANGER: Inhibition of human HCE-4 cell growth in a cell viability assay.

HCE-T = format: functional, cell-based
Description: SANGER: Inhibition of human HCE-T cell growth in a cell viability assay.

HEL = format: functional, cell-based
Description: SANGER: Inhibition of human HEL cell growth in a cell viability assay.

HOP-62 = format: functional, cell-based
Description: SANGER: Inhibition of human HOP-62 cell growth in a cell viability assay.

IST-MES1 = format: functional, cell-based
Description: SANGER: Inhibition of human IST-MES1 cell growth in a cell viability assay.

J-RT3-T3-5 = format: functional, cell-based
Description: SANGER: Inhibition of human J-RT3-T3-5 cell growth in a cell viability assay.

JVM-2 = format: functional, cell-based
Description: SANGER: Inhibition of human JVM-2 cell growth in a cell viability assay.

K5 = format: functional, cell-based
Description: SANGER: Inhibition of human K5 cell growth in a cell viability assay.

KALS-1 = format: functional, cell-based
Description: SANGER: Inhibition of human KALS-1 cell growth in a cell viability assay.

KE-37 = format: functional, cell-based
Description: SANGER: Inhibition of human KE-37 cell growth in a cell viability assay.

KNS-42 = format: functional, cell-based
Description: SANGER: Inhibition of human KNS-42 cell growth in a cell viability assay.

KNS-81-FD = format: functional, cell-based
Description: SANGER: Inhibition of human KNS-81-FD cell growth in a cell viability assay.

KS-1 = format: functional, cell-based
Description: SANGER: Inhibition of human KS-1 cell growth in a cell viability assay.

KU812 cell line = format: functional, cell-based
Description: SANGER: Inhibition of human KU812 cell growth in a cell viability assay.

KURAMOCHI = format: functional, cell-based
Description: SANGER: Inhibition of human KURAMOCHI cell growth in a cell viability assay.

KY821 = format: functional, cell-based
Description: SANGER: Inhibition of human KY821 cell growth in a cell viability assay.

LB1047-RCC = format: functional, cell-based
Description: SANGER: Inhibition of human LB1047-RCC cell growth in a cell viability assay.

LB373-MEL-D = format: functional, cell-based
Description: SANGER: Inhibition of human LB373-MEL-D cell growth in a cell viability assay.

LNCaP-Clone-FGC = format: functional, cell-based
Description: SANGER: Inhibition of human LNCaP-Clone-FGC cell growth in a cell viability assay.

LS-123 = format: functional, cell-based
Description: SANGER: Inhibition of human LS-123 cell growth in a cell viability assay.

LS-411N = format: functional, cell-based
Lu-65 = format: functional, cell-based
Description: SANGER: Inhibition of human LU-65 cell growth in a cell viability assay.

MLMA = format: functional, cell-based
Description: SANGER: Inhibition of human MLMA cell growth in a cell viability assay.

MOLT-4 = format: functional, cell-based
Description: SANGER: Inhibition of human MOLT-4 cell growth in a cell viability assay.

MSTO-211H = format: functional, cell-based
Description: SANGER: Inhibition of human MSTO-211H cell growth in a cell viability assay.

NB5 = format: functional, cell-based
Description: SANGER: Inhibition of human NB5 cell growth in a cell viability assay.

NCI-H1648 = format: functional, cell-based
Description: SANGER: Inhibition of human NCI-H1648 cell growth in a cell viability assay.

NCI-H1650 = format: functional, cell-based
Description: SANGER: Inhibition of human NCI-H1650 cell growth in a cell viability assay.

NCI-H23 = format: functional, cell-based
Description: SANGER: Inhibition of human NCI-H23 cell growth in a cell viability assay.

NCI-H720 = format: functional, cell-based
Description: SANGER: Inhibition of human NCI-H720 cell growth in a cell viability assay.

NEC8 = format: functional, cell-based
Description: SANGER: Inhibition of human NEC8 cell growth in a cell viability assay.

NMC-G1 = format: functional, cell-based
Description: SANGER: Inhibition of human NMC-G1 cell growth in a cell viability assay.

NTERA-2-cl-D1 = format: functional, cell-based
Description: SANGER: Inhibition of human NTERA-S-cl-D1 cell growth in a cell viability assay.

OMC-1 = format: functional, cell-based
Description: SANGER: Inhibition of human OMC-1 cell growth in a cell viability assay.

P30-OHK = format: functional, cell-based
Description: SANGER: Inhibition of human P30-OHK cell growth in a cell viability assay.

RH-1 = format: functional, cell-based
Description: SANGER: Inhibition of human RH-1 cell growth in a cell viability assay.

SBC-1 = format: functional, cell-based
Description: SANGER: Inhibition of human SBC-1 cell growth in a cell viability assay.

SCC-15 = format: functional, cell-based
Description: SANGER: Inhibition of human SCC-15 cell growth in a cell viability assay.

SH-4 = format: functional, cell-based
Description: SANGER: Inhibition of human SH-4 cell growth in a cell viability assay.

SHP77 = format: functional, cell-based, SHP-77
Description: SANGER: Inhibition of human SHP-77 cell growth in a cell viability assay.

SK-N-DZ = format: functional, cell-based
Description: SANGER: Inhibition of human SK-N-DZ cell growth in a cell viability assay.

SNU-C2B = format: functional, cell-based
Description: SANGER: Inhibition of human SNU-C2B cell growth in a cell viability assay.

8-MG-BA = format: functional, cell-based
Description: SANGER: Inhibition of human 8-MG-BA cell growth in a cell viability assay.

ALL-PO = format: functional, cell-based
Description: SANGER: Inhibition of human ALL-PO cell growth in a cell viability assay.

BB65-RCC = format: functional, cell-based
Description: SANGER: Inhibition of human BB65-RCC cell growth in a cell viability assay.

BT-474 = format: functional, cell-based
Description: SANGER: Inhibition of human BT-474 cell growth in a cell viability assay.

C2BBe1 = format: functional, cell-based
Description: SANGER: Inhibition of human C2BBe1 cell growth in a cell viability assay.

TK-10 = format: functional, cell-based
Description: SANGER: Inhibition of human TK10 cell growth in a cell viability assay.

U-266 = format: functional, cell-based
Description: SANGER: Inhibition of human U-266 cell growth in a cell viability assay.

CCRF-CEM = format: functional, cell-based
Description: SANGER: Inhibition of human CCRF-CEM cell growth in a cell viability assay.

CGTH-W-1 = format: functional, cell-based
Description: SANGER: Inhibition of human CGTH-W-1 cell growth in a cell viability assay.

COLO-668 = format: functional, cell-based
Description: SANGER: Inhibition of human COLO-668 cell growth in a cell viability assay.

## C[C@]12O[C@H](C[C@]1(O)CO)n1c3ccccc3c3c4c(c5c6ccccc6n2c5c31)CNC4=O [LESTAURTINIB]
COR-L88
  IC50: > 2 µM
D-263MG
  IC50: 971 nM
D283 Med
  IC50: 132 nM
DSH1
  IC50: 992 nM
EC-GI-10
  IC50: 535 nM
EM-2
  IC50: 450 nM
ES3
  IC50: 125 nM
ES8
  IC50: 132 nM
EW-11
  IC50: 132 nM
EW-24
  IC50: 266 nM
GCIY
  IC50: > 2 µM
GOTO
  IC50: 940 nM
GR-ST
  IC50: 494 nM
GT3TKB
  IC50: 389 nM
HCE-4
  IC50: > 2 µM
HCE-T
  IC50: 0.179 µM
HEL
  IC50: 0.204 µM
HOP-62
  IC50: > 2 µM
IST-MES1
  IC50: > 2 µM
J-RT3-T3-5
  IC50: 365 nM
JVM-2
  IC50: > 2 µM
K5
  IC50: 145 nM
KALS-1
  IC50: 689 nM
KE-37
  IC50: 16.8 nM
KNS-42
  IC50: > 2 µM
KNS-81-FD
  IC50: 1480 nM
KS-1
  IC50: 0.375 µM
KU812 cell line
  IC50: 1.01 µM
KURAMOCHI
  IC50: > 2 µM
KY821
  IC50: 159 nM
LB1047-RCC
  IC50: 76.9 nM
LB373-MEL-D
  IC50: > 2 µM
LNCaP-Clone-FGC
  IC50: 353 nM
LS-123
  IC50: > 2 µM
LS-411N
  IC50: 322 nM
Lu-65
  IC50: > 2 µM
MLMA
  IC50: 146 nM
MOLT-4
  IC50: 70.2 nM
MSTO-211H
  IC50: 439 nM
NB5
  IC50: 471 nM
NCI-H1648
  IC50: > 2 µM
NCI-H1650
  IC50: > 2 µM
NCI-H23
  IC50: 1690 nM
NCI-H720
  IC50: 48.5 nM
NEC8
  IC50: 268 nM
NMC-G1
  IC50: 0.411 µM
NTERA-2-cl-D1
  IC50: 363 nM
OMC-1
  IC50: 1180 nM
P30-OHK
  IC50: 128 nM
RH-1
  IC50: 149 nM
SBC-1
  IC50: 60.6 nM
SCC-15
  IC50: > 2 µM
SH-4
  IC50: 110 nM
SHP77
  IC50: > 2 µM
SK-N-DZ
  IC50: 258 nM
SNU-C2B
  IC50: 1.12 µM
8-MG-BA
  IC50: 124 nM
ALL-PO
  IC50: 172 nM
BB65-RCC
  IC50: 0.023 µM
BT-474
  IC50: > 2 µM
C2BBe1
  IC50: 361 nM
TK-10
  IC50: 251 nM
U-266
  IC50: 145 nM
CCRF-CEM
  IC50: > 2 µM
CGTH-W-1
  IC50: 43.6 nM
COLO-668
  IC50: > 2 µM

## N#C/C(=C1/Nc2ccccc2S1)c1ccnc(NCCc2cccnc2)n1
COR-L88
  IC50: > 8 µM
D-263MG
  IC50: > 8000 nM
D283 Med
  IC50: > 8000 nM
DSH1
  IC50: > 8000 nM
EC-GI-10
  IC50: > 8000 nM
EM-2
  IC50: > 8000 nM
ES3
  IC50: > 8000 nM
ES8
  IC50: > 8000 nM
EW-11
  IC50: > 8000 nM
EW-24
  IC50: > 8000 nM
GCIY
  IC50: 5.48 µM
GOTO
  IC50: > 8000 nM
GR-ST
  IC50: > 8000 nM
GT3TKB
  IC50: > 8000 nM
HCE-4
  IC50: > 8 µM
HCE-T
  IC50: 7.35 µM
HEL
  IC50: 7.08 µM
HOP-62
  IC50: > 8 µM
IST-MES1
  IC50: > 8 µM
J-RT3-T3-5
  IC50: > 8000 nM
JVM-2
  IC50: > 8 µM
K5
  IC50: > 8000 nM
KALS-1
  IC50: > 8000 nM
KE-37
  IC50: > 8000 nM
KNS-42
  IC50: > 8 µM
KNS-81-FD
  IC50: > 8000 nM
KS-1
  IC50: 6.03 µM
KU812 cell line
  IC50: 6.65 µM
KURAMOCHI
  IC50: 3.51 µM
KY821
  IC50: > 8000 nM
LB1047-RCC
  IC50: 1680 nM
LB373-MEL-D
  IC50: > 8 µM
LNCaP-Clone-FGC
  IC50: > 8000 nM
LS-123
  IC50: > 8 µM
LS-411N
  IC50: > 8000 nM
Lu-65
  IC50: > 8 µM
MLMA
  IC50: > 8000 nM
MOLT-4
  IC50: > 8000 nM
MSTO-211H
  IC50: > 8000 nM
NB5
  IC50: > 8000 nM
NCI-H1648
  IC50: > 8 µM
NCI-H1650
  IC50: > 8 µM
NCI-H23
  IC50: > 8000 nM
NCI-H720
  IC50: > 8000 nM
NEC8
  IC50: > 8000 nM
NMC-G1
  IC50: 6.12 µM
NTERA-2-cl-D1
  IC50: > 8000 nM
OMC-1
  IC50: > 8000 nM
P30-OHK
  IC50: 4750 nM
RH-1
  IC50: > 8000 nM
SBC-1
  IC50: > 8000 nM
SCC-15
  IC50: > 8 µM
SH-4
  IC50: > 8000 nM
SHP77
  IC50: > 8 µM
SK-N-DZ
  IC50: > 8000 nM
SNU-C2B
  IC50: 7.85 µM
8-MG-BA
  IC50: 3680 nM
ALL-PO
  IC50: 1790 nM
BB65-RCC
  IC50: 6.71 µM
BT-474
  IC50: > 8 µM
C2BBe1
  IC50: > 8000 nM
TK-10
  IC50: 3740 nM
U-266
  IC50: > 8000 nM
CCRF-CEM
  IC50: > 8 µM
CGTH-W-1
  IC50: 5540 nM
COLO-668
  IC50: 4.47 µM
